Assays:
HaCaT cells [1] = assay: impedimetric toxicity study (cytotoxicity assay) with confluent HaCaT cells on electrode array; type: cell-based, human; settings: 32 kHz; increasing concentrations; applied 24 h after thawing or seeding; 37° C.; cryopreserved (7 days, −80° C.) and newly seeded cells
Method: IZI at 32 kHz for confluent HaCaT cells that were incubated (cytotoxicity assay) at the time t=0 h with increasing concentrations of CdCl2.
The cell density was identical in both cases. Increasing concentrations of the heavy metal salt CdCl2 served as the chemical model toxin. The assay was carried out 24 h after thawing, respectively seeding.
The cell response to the addition of CdCl2 is documented with reference to the time profile of the normed impedance at a measurement frequency of 32 kHz. […] The time developments, also highly characteristic of the impedance after the addition of CdCl2 to the confluent cell layers for every concentration of CdCl2 for the cryopreserved cells are indistinguishably similar to those of the newly seeded cells.

HaCaT cells [2] = assay: impedimetric readout of adhesion of HaCaT cells to the electrode surface after cryopreservation and thawing; type: cell-based, human; settings: 10% by volume in the freezing medium; cryopreservation over 5 weeks at −80° C.; capacitance at 40 kHz
Method: The cell density on the sensor surface is 450,000 cells/cm^2 (T=37° C.) in both cases. The decrease in the capacitance reflects the increasing electrode coverage.
To check the viability state of the frozen cells and then thawed again, the kinetics of the adhesion of human skin cells (keratinocytes, HaCaT cells) to the electrode surface (of gold) after a cryopreservation of more than five weeks at −80° C. were tracked directly after thawing (revitalization) with time resolution via an impedimetric readout (see FIG. 2A). The time development of the capacitance C of the total system at a measurement frequency of 40 kHz is in linear dependence on the occupation of the electrode with adherent cells and thus reflects the progressing process of the cell adhesion.
The culture medium is modeled on the freezing medium after revitalizing the cells in the chemical composition. Variable DMSO contents were selected to freeze the cells to be able to directly optimize the freezing medium for the respective cell line.

| SMILES | time profile of the normed impedance after addition of CdCl2 (HaCaT cells [1]) | effect on the cell viability after thawing (HaCaT cells [2]) |
| --- | --- | --- |
| [Cl][Cd][Cl] [CdCl2] | decreases in dependence on the dosage | – |
| C[S+](C)[O-] [DMSO] | – | no negative effect |

Source: patent US11969730B2, “Apparatus for sensor-based examination of biological cells” (FRAUNHOFER-GESELLSCHAFT ZUR FÖRDERUNG DER ANGEWANDTEN …, priority 2017, dated 2024)
